Assay results published in patent US9725442B2, “Heterocyclic derivative having PGD2 receptor antagonist activity” (Shionogi & Co., Ltd., priority 2011, dated 2017).
Read-outs that look alike come from different tables or passages of the source.

Legend:
[1] = biological target: CRTH2 (Homo sapiens (Human), UniProt Q9Y5Y4); assay: CRTH2 receptor binding inhibitory activity ([3H]-PGD2 displacement, membranes of CRTH2-expressing K562 cell); conditions: [3H]-PGD2 displacement, membrane of CRTH2-expressing K562 cell, read-out: Ki
How it was run: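 CRTH2-expressing K562 membranes (20 μg/well) in 50 mM Tris/HCl pH 7.4 with 10 mM MgCl2 were incubated with [3H]-PGD2 for 60 min at room temperature, then filtered.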

[2] = biological target: Human DP1 receptor (Homo sapiens (Human), UniProt Q13258); assay: Human DP1 inhibitory activity in DP1-expressing cell (PGD2-induced cAMP); assay type: cell-based; conditions: category of cAMP IC50, human DP1 receptor expressing Jurkut cell
Experimental: Compounds were categorized as AA (cAMP is less than 100 nM) and A (cAMP is more than 100 nM and less than 5000 nM) as shown in Table 99 and 100.

[3] = CRTH2 receptor binding, categorized AAAA/AAA

Chain of Human DP1 receptor (Q13258 whole entry): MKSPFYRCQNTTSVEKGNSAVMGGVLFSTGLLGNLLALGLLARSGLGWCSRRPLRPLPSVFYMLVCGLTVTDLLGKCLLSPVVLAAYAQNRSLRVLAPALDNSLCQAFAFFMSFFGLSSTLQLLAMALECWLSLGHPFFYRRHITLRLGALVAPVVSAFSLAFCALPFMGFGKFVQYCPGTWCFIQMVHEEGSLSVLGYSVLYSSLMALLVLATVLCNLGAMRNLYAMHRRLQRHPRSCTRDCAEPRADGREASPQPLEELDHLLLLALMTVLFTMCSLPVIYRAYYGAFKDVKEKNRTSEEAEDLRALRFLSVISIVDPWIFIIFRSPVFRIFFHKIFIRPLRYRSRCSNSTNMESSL
Chain of CRTH2 (Q9Y5Y4 whole entry): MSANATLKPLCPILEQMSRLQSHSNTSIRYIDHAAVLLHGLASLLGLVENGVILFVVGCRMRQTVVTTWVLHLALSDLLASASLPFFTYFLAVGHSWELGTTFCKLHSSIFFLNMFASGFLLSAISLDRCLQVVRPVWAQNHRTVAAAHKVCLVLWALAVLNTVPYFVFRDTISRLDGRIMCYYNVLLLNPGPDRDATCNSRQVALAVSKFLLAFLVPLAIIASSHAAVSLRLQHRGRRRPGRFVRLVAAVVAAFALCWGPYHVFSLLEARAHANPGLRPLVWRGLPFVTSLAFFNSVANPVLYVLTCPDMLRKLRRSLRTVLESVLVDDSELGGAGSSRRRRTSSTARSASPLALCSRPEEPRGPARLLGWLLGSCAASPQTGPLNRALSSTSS

SMILES	Ki [1, 3] [nM]	IC50 [2] [nM]	Ki [1] [nM]
Cc1ccc2c(CC(=O)O)nn([C@H]3CN(S(=O)(=O)c4ccc(OC(C)C)nc4)C[C@H]3C)c2c1 [Compound I-229]	< 100	< 100	
COc1ccc(S(=O)(=O)N2C[C@@H](C)[C@@H](n3nc(CC(=O)O)c4ccc(C)cc43)C2)cc1 [Compound I-230]	< 100	< 100	
Cc1ccc2c(CC(=O)O)nn([C@H]3CN(S(=O)(=O)c4ccc(OC(F)(F)F)cc4)C[C@H]3C)c2c1 [Compound I-231]	< 100	< 100	
CCc1ccc(S(=O)(=O)N2C[C@@H](C)[C@@H](n3nc(CC(=O)O)c4ccc(C)cc43)C2)cc1 [Compound I-232]	< 100	< 100	
COc1ccc(S(=O)(=O)N2C[C@@H](C)[C@@H](n3nc(CC(=O)O)c4ccc(F)cc43)C2)c(F)c1 [Compound I-233]	< 100	< 100	
COc1ccc(S(=O)(=O)N2C[C@@H](C)[C@@H](n3nc(CC(=O)O)c4ccc(F)cc43)C2)nc1 [Compound I-234]	< 100	100 to 5000	
CCOc1ccc(S(=O)(=O)N2C[C@@H](C)[C@@H](n3nc(CC(=O)O)c4ccc(F)cc43)C2)nc1 [Compound I-235]	< 100	100 to 5000	
COc1ccc(S(=O)(=O)N2C[C@@H](C)[C@@H](n3nc(CC(=O)O)c4ccc(C)cc43)C2)c(F)c1 [Compound I-236]	< 100	< 100	
CCOc1ccc(S(=O)(=O)N2C[C@@H](C)[C@@H](n3nc(CC(=O)O)c4ccc(C)cc43)C2)c(F)c1 [Compound I-237]	< 100	< 100	
CC(C)C1CC1S(=O)(=O)N1C[C@@H](C)[C@@H](n2nc(CC(=O)O)c3ccccc32)C1 (some centres unmarked) [Compound I-238]	< 100	100 to 5000	
CC(C)C1CC1S(=O)(=O)N1C[C@@H](C)[C@@H](n2nc(CC(=O)O)c3ccc(F)cc32)C1 (some centres unmarked) [Compound I-239]	< 100	100 to 5000	4.4
COc1ccc(S(=O)(=O)N2C[C@@H](C)[C@@H](n3nc(CC(=O)O)c4ccccc43)C2)cn1 [Compound I-240]	< 100	100 to 5000	
COc1ccc(S(=O)(=O)N2C[C@@H](C)[C@@H](n3nc(CC(=O)O)c4ccccc43)C2)cc1 [Compound I-241]	< 100	< 100	
C[C@@H]1CN(S(=O)(=O)c2ccc(OC(F)(F)F)cc2)C[C@@H]1n1nc(CC(=O)O)c2ccccc21 [Compound I-242]	< 100	< 100	
CCc1ccc(S(=O)(=O)N2C[C@@H](C)[C@@H](n3nc(CC(=O)O)c4ccccc43)C2)cc1 [Compound I-243]	100 to 5000	< 100	
COc1ccc(S(=O)(=O)N2C[C@@H](C)[C@@H](n3nc(CC(=O)O)c4ccccc43)C2)c(F)c1 [Compound I-244]	< 100	< 100	
COc1ccc(S(=O)(=O)N2C[C@@H](C)[C@@H](n3nc(CC(=O)O)c4ccccc43)C2)nc1 [Compound I-246]	< 100	100 to 5000	
CCOc1ccc(S(=O)(=O)N2C[C@@H](C)[C@@H](n3nc(CC(=O)O)c4ccccc43)C2)nc1 [Compound I-247]	< 100	100 to 5000	15
CC(C)Oc1ccc(S(=O)(=O)N2C[C@@H](C)[C@@H](n3nc(CC(=O)O)c4ccccc43)C2)nc1 [Compound I-248]	< 100	100 to 5000	
Cc1ccc2c(CC(=O)O)nn([C@H]3CN(S(=O)(=O)C4CC4C(C)C)C[C@H]3C)c2c1 (some centres unmarked) [Compound I-249]	< 100	100 to 5000	
Cc1cccc2c1c(CC(=O)O)nn2[C@H]1CN(S(=O)(=O)c2ccc(OC(C)C)cc2)C[C@H]1C [Compound I-250]	100 to 5000	< 100	
C[C@@H]1CN(S(=O)(=O)c2ccc(OC(F)F)cc2)C[C@@H]1n1nc(CC(=O)O)c2cc(F)ccc21 [Compound I-251]	< 100	< 100	
CCOc1ccc(S(=O)(=O)N2C[C@@H](C)[C@@H](n3nc(CC(=O)O)c4cc(F)ccc43)C2)cc1 [Compound I-252]	< 100	< 100	
COCCOCCOc1ccc(S(=O)(=O)N2C[C@@H](C)[C@@H](n3nc(CC(=O)O)c4ccccc43)C2)cc1 [Compound I-253]	100 to 5000	100 to 5000	

SMILES	Ki [1, 3] [nM]	IC50 [2] [nM]	Ki [1] [nM]
CCOc1ccc(S(=O)(=O)N2C[C@@H](C)[C@@H](n3nc(CC(=O)O)c4ccccc43)C2)c(CF)c1 [Compound I-258]	< 100	< 100	
CCOc1ccc(S(=O)(=O)N2C[C@@H](C)[C@@H](n3nc(CC(=O)O)c4ccccc43)C2)c(CNC(C)=O)c1 [Compound I-259]	< 100	100 to 5000	
CCOc1ccc(S(=O)(=O)N2C[C@@H](C)[C@@H](n3nc(CC(=O)O)c4ccccc43)C2)c(CCCNC(C)=O)c1 [Compound I-260]	< 100	100 to 5000	21
CCOc1ccc(S(=O)(=O)N2C[C@@H](C)[C@@H](n3nc(CC(=O)O)c4ccccc43)C2)c(OC)c1 [Compound I-261]	100 to 5000	100 to 5000	
CC(C)Oc1ccc(S(=O)(=O)N2C[C@@H](C)[C@@H](n3nc(CC(=O)O)c4cc(C#N)ccc43)C2)cc1 [Compound I-262]	100 to 5000	< 100	
CC(C)Oc1ccc(S(=O)(=O)N2C[C@@H](C)[C@@H](n3nc(CC(=O)O)c4c(F)cccc43)C2)cc1 [Compound I-263]	< 100	< 100	
[2H]c1ccc2c(c1)c(CC(=O)O)nn2[C@H]1CN(S(=O)(=O)c2ccc(OCC)cc2)C[C@H]1C [Compound I-264]	< 100	< 100	
CCOc1ccc(S(=O)(=O)N2C[C@@H](C)[C@@H](n3nc(CC(=O)O)c4cc(C)ccc43)C2)cn1 [Compound I-265]	< 100	< 100	
C[C@@H]1CN(S(=O)(=O)C2CCCCC2)C[C@@H]1n1nc(CC(=O)O)c2ccccc21 [Compound I-266]	100 to 5000	100 to 5000	
COc1ccc2c(c1)c(CC(=O)O)nn2[C@H]1CN(S(=O)(=O)c2ccc(OC(C)C)cc2)C[C@H]1C [Compound I-267]	100 to 5000	< 100	
Cc1ccc2c(c1)c(CC(=O)O)nn2[C@H]1CN(S(=O)(=O)c2ccc(OCF)cc2)C[C@H]1C [Compound I-268]	< 100	< 100	
C[C@@H]1CN(S(=O)(=O)c2ccc(OCF)cc2)C[C@@H]1n1nc(CC(=O)O)c2ccc(F)cc21 [Compound I-269]	< 100	< 100	
C[C@@H]1CN(S(=O)(=O)c2ccc(OCF)cc2)C[C@@H]1n1nc(CC(=O)O)c2ccccc21 [Compound I-270]	< 100	< 100	
CCOc1ccc(S(=O)(=O)N2C[C@@H](C)[C@@H](n3cc(CC(=O)O)c4ccc(C)cc43)C2)cc1 [Compound I-271]	< 100	< 100	
CCOc1ccc(S(=O)(=O)N2C[C@@H](C)[C@@H](n3cc(CC(=O)O)c4ccc(C)cc43)C2)cn1 [Compound I-272]	< 100	< 100	
CCOCCCOc1ccc(S(=O)(=O)N2C[C@@H](C)[C@@H](n3nc(CC(=O)O)c4ccccc43)C2)cc1 [Compound I-273]	100 to 5000	100 to 5000	
COCCCOc1ccc(S(=O)(=O)N2C[C@@H](C)[C@@H](n3nc(CC(=O)O)c4ccccc43)C2)cc1 [Compound I-274]	< 100	100 to 5000	
CCOc1ccc(S(=O)(=O)N2C[C@H](n3nc(CC(=O)O)c4ccccc43)C[C@@H]2CF)cn1 [Compound I-275]	100 to 5000	100 to 5000	
C=Cc1cc(OCC)ccc1S(=O)(=O)N1C[C@@H](C)[C@@H](n2nc(CC(=O)O)c3ccccc32)C1 [Compound I-276]	< 100	< 100	
CCOc1ccc(S(=O)(=O)N2C[C@@H](C)[C@@H](n3nc(CC(=O)O)c4ccccc43)C2)c(CO)c1 [Compound I-277]	< 100	< 100	
C#Cc1cc(OCC)ccc1S(=O)(=O)N1C[C@@H](C)[C@@H](n2nc(CC(=O)O)c3ccccc32)C1 [Compound I-278]	< 100	100 to 5000	
CCOc1ccc(S(=O)(=O)N2C[C@@H](C)[C@@H](n3nc(CC(=O)O)c4ccccc43)C2)c(/C=C/CO)c1 [Compound I-279]	< 100	100 to 5000	
CCOc1ccc(S(=O)(=O)N2C[C@@H](C)[C@@H](n3nc(CC(=O)O)c4ccccc43)C2)c(CCCO)c1 [Compound I-280]	< 100	100 to 5000	7.8
